From patent US20080070987A1, “META-XYLYLENEDIAMINE VANADATE SALTS” (priority 2006, published 2008)

How the values were obtained:
Mouse SSAO/VAP-1 = molecular target: T1, Mouse SSAO/VAP-1 (Mus musculus, UniProt O70423); assay: Fluorimetric detection of SSAO-mediated H2O2 formation (Amplex Red), mouse adipose tissue membranes; assay type: biochemical; settings: production of hydrogen peroxide; compounds at 100 μM
T1 construct: from tissue; host or cells: internal adipose tissue membranes of Swiss mice
T1 sequence (O70423 1-765): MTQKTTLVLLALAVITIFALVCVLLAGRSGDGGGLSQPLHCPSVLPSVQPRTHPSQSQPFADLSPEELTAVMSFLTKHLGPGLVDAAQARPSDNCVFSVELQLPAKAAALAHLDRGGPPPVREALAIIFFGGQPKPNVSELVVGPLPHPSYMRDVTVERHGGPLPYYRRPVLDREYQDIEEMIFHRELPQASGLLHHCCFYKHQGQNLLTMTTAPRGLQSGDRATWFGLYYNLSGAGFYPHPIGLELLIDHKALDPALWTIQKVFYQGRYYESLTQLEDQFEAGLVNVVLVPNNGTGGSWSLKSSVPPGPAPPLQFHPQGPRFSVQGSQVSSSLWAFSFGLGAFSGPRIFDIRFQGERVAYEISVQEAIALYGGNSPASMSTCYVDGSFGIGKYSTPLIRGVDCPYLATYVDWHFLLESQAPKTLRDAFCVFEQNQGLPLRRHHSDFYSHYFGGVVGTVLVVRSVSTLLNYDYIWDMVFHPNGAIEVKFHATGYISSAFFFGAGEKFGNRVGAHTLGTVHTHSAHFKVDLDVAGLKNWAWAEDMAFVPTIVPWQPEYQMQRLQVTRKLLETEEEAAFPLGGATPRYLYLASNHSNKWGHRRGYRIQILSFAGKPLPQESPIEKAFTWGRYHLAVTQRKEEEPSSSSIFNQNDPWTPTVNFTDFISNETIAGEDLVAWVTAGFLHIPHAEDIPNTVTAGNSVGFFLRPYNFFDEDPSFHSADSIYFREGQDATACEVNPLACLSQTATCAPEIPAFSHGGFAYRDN
Procedure: Internal adipose tissue was obtained from Swiss mice weighing between 20 to […]. […] The lysates were then centrifuged at 5000 g at 4° C. for 15 min to eliminate the fat cake and non-homogenized material, and supernatants were collected and centrifuged at 200000 g for 2 h at 4° C. Pelleted membranes were resuspended in 30 mmol/l HEPES and stored at −80° C. until use. Protein concentrations were measured by the Bradford method with γ-globulin as standard.
(§1) The SSAO activity of human recombinant VAP-1 (0.1 μg prot/assay) and mouse adipose tissue membranes (1 μg prot/assay) was measured using Amplex Red Reagent, a highly sensitive and stable probe for H2O2. The reaction was performed in 200 μL of 0.2 mol/l phosphate buffer at pH 7.4 for 50 min at 37° C. in black non-phosphorescent microplates (Nunc). Catalytic reaction was initiated by the addition of the amines indicated as putative SSAO substrates and H2O2-detecting mixture containing horseradish peroxidase and Amplex Red, as previously described. Fluorescence intensity was measured (excitation, 545 nm, 590 nm, Bio-Tek fluorescence plate reader) and H2O2 concentration was calculated form calibration curves generated by serial dilutions of standard H2O2. Fluorescence readings were performed every 5 min. […] To test amines as putative SSAO inhibitors, they were pre-incubated for 20 min with semicarbazide, and their percentage of inhibition was calculated by referring to SSAO activity produced by benzylamine. The kinetic parameters Km and Vmax were calculated using appropriate non-linear curve-fitting formula based on the Michaelis-Menten equation and using GraphPad Prism 4.0 software.

Human SSAO/VAP-1 = molecular target: T2, Human SSAO/VAP-1 (Homo sapiens, UniProt Q16853); assay: Fluorimetric detection of SSAO-mediated H2O2 formation (Amplex Red), human recombinant VAP-1; assay type: biochemical; settings: production of hydrogen peroxide; compounds at 1 mM
T2 sequence (Q16853 1-763): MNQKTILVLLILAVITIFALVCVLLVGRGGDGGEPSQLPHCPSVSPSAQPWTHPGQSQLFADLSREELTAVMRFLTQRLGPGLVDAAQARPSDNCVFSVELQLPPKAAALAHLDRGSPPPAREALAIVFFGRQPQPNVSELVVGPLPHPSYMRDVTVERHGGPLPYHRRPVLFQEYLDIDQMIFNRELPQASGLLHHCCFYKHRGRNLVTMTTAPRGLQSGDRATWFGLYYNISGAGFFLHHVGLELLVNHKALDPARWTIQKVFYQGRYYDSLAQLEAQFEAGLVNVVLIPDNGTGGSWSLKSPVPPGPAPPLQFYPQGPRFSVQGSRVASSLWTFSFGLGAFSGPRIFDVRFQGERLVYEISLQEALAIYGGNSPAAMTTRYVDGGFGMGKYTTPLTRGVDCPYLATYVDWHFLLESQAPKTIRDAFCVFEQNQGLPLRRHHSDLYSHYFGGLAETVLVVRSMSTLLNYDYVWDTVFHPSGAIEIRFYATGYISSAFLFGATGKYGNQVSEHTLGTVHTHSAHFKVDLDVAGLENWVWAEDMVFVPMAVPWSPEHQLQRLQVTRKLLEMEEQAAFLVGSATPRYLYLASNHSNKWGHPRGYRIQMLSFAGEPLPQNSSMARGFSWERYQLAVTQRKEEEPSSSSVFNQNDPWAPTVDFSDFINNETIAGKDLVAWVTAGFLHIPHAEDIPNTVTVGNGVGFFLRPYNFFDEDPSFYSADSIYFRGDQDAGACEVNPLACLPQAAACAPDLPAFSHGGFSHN
Procedure: as §1

isolated rat adipocytes = assay: Glucose (2-deoxyglucose) transport in isolated rat adipocytes; assay type: cell-based, Wistar rats; settings: for effect of semicarbazide on the stimulation of glucose transport: 1 mM semicarbazide; for stimulation of glucose transport (2-DG uptake), in words: 45 min incubation
Procedure: FIG. 1 is a graphical illustration of the hexaquis(benzylammonium) decavanadate effects on glucose transport in isolated rat adipocytes. In this Figure, V corresponds to the rate of 2-deoxyglucose transport (expressed relative to the basal rate), and the results are mean +standard error of the mean (SEM). The adipocytes were incubated in the absence of stimulants in the following conditions: basal (1); in the presence of 100 nM insulin (2); in the presence of hexaquis(benzylammonium) decavanadate at concentrations of 0.5 μM (3), 1 μM (4), 2.5 μM (5), 5 μM (6), 10 μM (7), 25 μM (8), 50 μM (9), and 100 μM (10). The cells were also incubated in the presence of the semicarbazide inhibitor (1 mM), and 10 μM hexaquis(benzylammonium) decavanadate (11), 25 μM of hexaquis(benzylammonium) decavanadate (12) or 50 μM hexaquis(benzylammonium) decavanadate (13). In parallel, the cells were incubated in presence of 100 μM of sodium vanadate and 100 μM of benzylamine, in the absence (14) or in the presence of 1 mM of semicarbazide (15).
FIG. 2 is a graphical illustration of the effects of hexaquis(benzylammonium) decavanadate, pentaquis(benzylammonium) decavanadate and tetraquis(benzylammonium) decavanadate on glucose transport in isolated rat adipocytes. V corresponds to the rate of 2-deoxyglucose uptake (expressed as relation with basal group), and the results are mean +standard error mean. The adipocytes were incubated in the absence of stimulants in the following conditions: basal (1); in the presence of 100 nM of insulin (2); in the presence of hexaquis(benzylammonium) decavanadate at concentrations of 10 μM (3) and 25 μM (4), pentaquis(benzylammonium) decavanadate at concentrations of 10 μM (8) and 25 μM (9), and tetraquis(benzylammonium) decavanadate at concentrations of 10 μM (11) and 25 μM (12). The cells were also incubated in the presence of the semicarbazide inhibitor (1 mM) and, 25 μM of hexaquis(benzylammonium) decavanadate (5), 25 μM of pentaquis(benzylammonium) decavanadate (10) or 25 μM of tetraquis(benzylammonium) decavanadate (13). In parallel, the cells were incubated in the presence of 100 μM of sodium vanadate (6) or in the presence of 250 μM of sodium vanadate (7).
Adipose cells from Wistar rats were incubated for 45 minutes in basal conditions (Basal) or in the presence of 100 nM insulin (Ins) and different concentrations of. hexaquis(benzylammonium) decavanadate (B6V10) in the absence or in the presence of 1 mM semicarbazide (SCZ). Subsequently, 2-DG transport was measured over a 5 min. interval.
The effects of the three tested compounds (B6V10, B5V10 and B4V10) were compared. Adipose cells from Wistar rats were incubated for 45 minutes in basal conditions (Basal) or in the presence of 100 nM insulin (Ins), and different concentrations of decavanadate (V10), hexaquis(benzylammonium) decavanadate (B6V10), pentaquis(benzylammonium) decavanadate (B5V10) or tetraquis(benzylammonium) decavanadate (B4V10) in the absence or in the presence of 1 mM semicarbazide (SCZ). 2-DG transport was measured over 5 min. intervals.
In additional experiments, compounds shown in FIG. 6A, 2-(4-fluoro-phenyl)ethylamine (compound A), 3-phenylpropylamine (compound B), 4-fluoro-benzylamine (compound C) and 4-phenylbutylamine (compound D) were assessed using the experimental methods set forth above for the capacity to stimulate 2-DG uptake in isolated rat adipocytes. Adipose cells from Wistar rats were incubated for 45 minutes in basal conditions (Basal) or in the presence of 100 nM insulin (Ins), and different concentrations of vanadium salts of 2-(4-fluoro-phenyl)-ethylamine (compound A), 3-phenyl-propylamine (compound B), 4-fluoro-benzylamine (compound C) and 4-phenyl-butylamine (compound D). 2-DG transport was measured over 5 min.
The effects of incubation with semicarbazide or phosphatidylinositol 3-kinase inhibitors were also investigated. […]

CCC(=O)NCc1cccc(CN)c1 [Example 3, N-(3-(aminomethyl)benzyl)propionamide]
Mouse SSAO/VAP-1 activity % relative to benzylamine (Mouse SSAO/VAP-1): 27 ± 1% | Human SSAO/VAP-1 activity % relative to benzylamine (Human SSAO/VAP-1): 4 ± 1%

NCc1cccc(CNC(=O)c2ccccc2)c1 [Example 6, N-(3-(aminomethyl)benzyl)benzamide]
Mouse SSAO/VAP-1 activity % relative to benzylamine (Mouse SSAO/VAP-1): 58 ± 4% | Human SSAO/VAP-1 activity % relative to benzylamine (Human SSAO/VAP-1): 17 ± 1%

NCc1cccc(CNC(=O)CI)c1 [Example 4, N-(3-(aminomethyl)benzyl)-2-iodoacetamide]
Mouse SSAO/VAP-1 activity % relative to benzylamine (Mouse SSAO/VAP-1): 61 ± 5% | Human SSAO/VAP-1 activity % relative to benzylamine (Human SSAO/VAP-1): 38 ± 3%

NCc1cccc(CNC(=O)c2ccc(O)cc2)c1 [Example 10, N-(3-(aminomethyl)benzyl)-4-hydroxybenzamide]
Mouse SSAO/VAP-1 activity % relative to benzylamine (Mouse SSAO/VAP-1): 26 ± 1% | Human SSAO/VAP-1 activity % relative to benzylamine (Human SSAO/VAP-1): 5 ± 1%

pentaquis(benzylammonium) decavanadate [Example B5V10]
effect of semicarbazide on the stimulation of glucose transport (isolated rat adipocytes): blocked in the presence of semicarbazide | effect of semicarbazide on the stimulation of glucose transport (isolated rat adipocytes; listed as pentaquis(benzylammonium) decavanadate): this effect was inhibited | stimulation of glucose transport (2-DG uptake), in words (isolated rat adipocytes): pronounced stimulation on glucose transport

C=CCOC(=O)NCc1cccc(CN)c1 [Example 5, allyl 3-(aminomethyl)benzylcarbamate]
Mouse SSAO/VAP-1 activity % relative to benzylamine (Mouse SSAO/VAP-1): 49 ± 3% | Human SSAO/VAP-1 activity % relative to benzylamine (Human SSAO/VAP-1): 21 ± 1%

NCc1ccc(F)cc1 [compound C, 4-fluoro-benzylamine]
stimulation of glucose transport (2-DG uptake), in words (isolated rat adipocytes): markedly stimulated glucose transport

NCc1ccc(C(=O)NCc2cccc(CN)c2)cc1 [Example 11, 4-(aminomethyl)-N-(3-(aminomethyl)benzyl)benzamide]
Mouse SSAO/VAP-1 activity % relative to benzylamine (Mouse SSAO/VAP-1): 12 ± 1% | Human SSAO/VAP-1 activity % relative to benzylamine (Human SSAO/VAP-1): 17 ± 2%

Cc1ccc(S(=O)(=O)NCc2cccc(CN)c2)cc1 [Example 8, N-(3-(aminomethyl)benzyl)-4-methylbenzenesulfonamide]
Mouse SSAO/VAP-1 activity % relative to benzylamine (Mouse SSAO/VAP-1): 14 ± 3% | Human SSAO/VAP-1 activity % relative to benzylamine (Human SSAO/VAP-1): 12 ± 2%

NCCCc1ccccc1 [compound B, 3-phenylpropylamine]
stimulation of glucose transport (2-DG uptake), in words (isolated rat adipocytes): markedly stimulated glucose transport

CC(=O)NCc1cccc(CN)c1 [Example 2, N-(3-(aminomethyl)benzyl)acetamide]
Mouse SSAO/VAP-1 activity % relative to benzylamine (Mouse SSAO/VAP-1): 16 ± 4% | Human SSAO/VAP-1 activity % relative to benzylamine (Human SSAO/VAP-1): 3 ± 1%

CC(=O)N[C@H](C(=O)NCc1cccc(CN)c1)c1ccccc1 [Example 7, (S)-2-acetamido-N-(3-(aminomethyl)benzyl)-2-phenylacetamide]
Mouse SSAO/VAP-1 activity % relative to benzylamine (Mouse SSAO/VAP-1): 13 ± 3% | Human SSAO/VAP-1 activity % relative to benzylamine (Human SSAO/VAP-1): 2 ± 1%

NCCc1ccc(F)cc1 [compound A, 2-(4-fluoro-phenyl)ethylamine]
stimulation of glucose transport (2-DG uptake), in words (isolated rat adipocytes): markedly stimulated glucose transport

NCCCCc1ccccc1 [compound D, 4-phenylbutylamine]
stimulation of glucose transport (2-DG uptake), in words (isolated rat adipocytes): markedly stimulated glucose transport

NCc1cccc(CNC(=O)c2ccc(Br)cc2)c1 [Example 12, N-(3-(aminomethyl)benzyl)-4-bromobenzamide]
Mouse SSAO/VAP-1 activity % relative to benzylamine (Mouse SSAO/VAP-1): 46 ± 1% | Human SSAO/VAP-1 activity % relative to benzylamine (Human SSAO/VAP-1): 16 ± 2%

tetraquis(benzylammonium) decavanadate [Example B4V10]
effect of semicarbazide on the stimulation of glucose transport (isolated rat adipocytes): blocked in the presence of semicarbazide | effect of semicarbazide on the stimulation of glucose transport (isolated rat adipocytes; listed as tetraquis(benzylammonium) decavanadate): this effect was inhibited | stimulation of glucose transport (2-DG uptake), in words (isolated rat adipocytes): pronounced stimulation on glucose transport

NCc1ccccc1 [Example 1, benzylamine, reference compound]
Mouse SSAO/VAP-1 activity % relative to benzylamine (Mouse SSAO/VAP-1): 100% | Human SSAO/VAP-1 activity % relative to benzylamine (Human SSAO/VAP-1): 100%
